Test results published in patent publication US11685732B2, “MYST family histone acetyltransferase inhibitors” (Epizyme, Inc., priority 2017, dated 2023).

Key:
[1] = test system: SEM cells; assay: Long term proliferation assay (14-day), SEM; type: cell-based; settings: 336 h, B-ALL, 14-day timepoint, absolute IC50
Description: (§1) Long term proliferation assay. A panel of multiple myeloma (MM) and acute myeloid leukemia (AML) cell lines were tested in 14-day proliferation assays. Exponentially growing cells were plated, in triplicate, in 96-well plates at the appropriate cell density in a final volume of 150 μL. Cells were incubated in the presence of increasing concentrations of compound A-30. Viable cell number was determined at 0, 4, 7, 11, and 14 days using Calcein staining and using an Accumen instrument to enumerate the number of cells. On days of cell counts, growth media and compound A-30 were replaced, and cells split back to initial density. Total cell number is expressed as split-adjusted viable cells per well.
(§2) Calculations were performed as follows:
(§3) First, the inhibition of proliferation was calculated for each well at each treatment concentration at each timepoint with the following formula:
(§4) [formula] Then, for each cell line, concentration response curves were plotted as average and standard deviation from triplicate determinations as percent inhibition vs log of concentration of compound A-30. Absolute IC50 values (concentration of compound at which 50% inhibition occurs) were determined from the curve at each timepoint using Graphpad Prism software. An IC50 value of ≤10 μM is designated as “A”; an IC50 value of >10 μM is designated as “B”.

[2] = test system: OCIAML3 cells; assay: Long term proliferation assay (14-day), OCIAML3; type: cell-based; settings: Homo sapiens, OCI-AML-3, 336 h, 14-day timepoint, absolute IC50
Description: as §1, §2, §3, §4

[3] = target: KAT-6A (Homo sapiens (Human), UniProt Q92794); assay: KAT-6A biochemical inhibition assay (SAMDI mass spectrometry); settings: Table 5
Method in brief: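 IC50 values came from SAMDI time-of-flight mass spectrometry after formic acid quench (0.5% final). Acetylation ran 90 min at 25 °C with 1 μM acetyl coenzyme A and 1 μM peptide substrate, following compound pre-incubation with 12.5 nM KAT-6A in Tris buffer pH 8.0 containing DTT, 2% DMSO final.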

[4] = test system: H3K23 acetylation in CAL-120 cells; assay: Inhibition of acetylation of H3K23 in Human cell line CAL-120; type: cell-based; settings: CAL-120 cell line, 3 hours, serial dilutions starting at 10 μM; FIG. 1
Description: Inhibition of acetylation of H3K23 in Human cell line CAL-120. Cell line CAL-120 was plated in eleven 10 cm tissue culture dishes at a cell density of 4×10^5 cells/cm^2 and treated with ten 2-fold serial dilutions of compound A-30 starting at 10 μM and one dish with DMSO (vehicle control) for 3 hours. Cells were tripsinized, washed twice with ice cold PBS and snap-frozen. Histones were extracted from cell pellets. Protein concentration was assessed and 60 ng of protein sample from histone extraction was prepared in triplicate in 100 μl coating buffer (0.05% w/v BSA in PBS) and added directly to high binding 96 well plates. Plates were left at 4° C. overnight to allow protein to adhere. Coating buffer with histones was discarded and plates blotted, and 100 μL per well of primary antibody solution of rabbit anti-H3K23ac antibody (Millipore 07-355) (1:600) and mouse anti-total H3 antibody (CST-14269) (1:500) in Odyssey buffer with 0.1% Tween 20 (v/v) was added to the wells of the plate and incubated for 1 hour. […]
Calculations were performed as follows: First, the ratio for each well was determined by:
[formula] Then, the average of the ratio values for each test well was calculated and used to determine the percent of H3K23Ac from vehicle for each test well in the plate: […]

[5] = test system: KMS11 cells; assay: Long term proliferation assay (14-day), KMS11; type: cell-based; settings: Homo sapiens, KMS-11, 336 h; KMS11, MM; 14-day timepoint; absolute IC50
Description: as §1, §2, §3, §4

[6] = test system: KMS34 cells; assay: Long term proliferation assay (14-day), KMS34; type: cell-based; settings: KMS-34, 336 h; KMS34, MM; 14-day timepoint; absolute IC50
Description: as §1, §2, §3, §4

[7] = test system: LP1 cells; assay: Long term proliferation assay (14-day), LP1; type: cell-based; settings: Homo sapiens, LP-1, 336 h; LP1, MM; 14-day timepoint; absolute IC50
Description: as §1, §2, §3, §4

[8] = test system: THP1 cells; assay: Long term proliferation assay (14-day), THP1; type: cell-based; settings: Homo sapiens, THP-1, 336 h; THP1, AML; 14-day timepoint; absolute IC50
Description: as §1, §2, §3, §4

[9] = test system: RPMI8226 cells; assay: Long term proliferation assay (14-day), RPMI8226; type: cell-based; settings: Homo sapiens, RPMI-8226, 336 h; RPMI8226, MM; 14-day timepoint; absolute IC50
Description: as §1, §2, §3, §4

[10] = test system: NOMO1 cells; assay: Long term proliferation assay (14-day), NOMO1; type: cell-based; settings: Homo sapiens, NOMO-1, 336 h; NOMO1, AML; 14-day timepoint; absolute IC50
Description: as §1, §2, §3, §4

[11] = test system: MOLM13 cells; assay: Long term proliferation assay (14-day), MOLM13; type: cell-based; settings: Homo sapiens, MOLM-13, 336 h; MOLM13, AML; 14-day timepoint; absolute IC50
Description: as §1, §2, §3, §4

[12] = test system: OCIAML2 cells; assay: Long term proliferation assay (14-day), OCIAML2; type: cell-based; settings: Homo sapiens, OCI-AML2, 336 h; OCIAML2, AML; 14-day timepoint; absolute IC50
Description: as §1, §2, §3, §4

[13] = target: KAT-5 (Homo sapiens (Human), UniProt Q92993); assay: KAT-5 biochemical inhibition assay (SAMDI mass spectrometry); settings: Table 5
Method in brief: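 Acetylation of 1 μM peptide by 9 nM enzyme with 0.5 μM acetyl-CoA (final) was run 90 min at 25° C in Tris pH 8.0 buffer with DTT, after compound preincubation at 2% DMSO. Formic acid stopped the reaction, and product was quantified by SAMDI mass spectrometry to derive IC50.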

[14] = target: KAT-7 (Homo sapiens (Human), UniProt O95251); assay: KAT-7 biochemical inhibition assay (SAMDI mass spectrometry); settings: Table 5
Method in brief: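 Read-out was SAMDI time-of-flight MS of formic acid-quenched reactions (0.5% final). Compound dilutions (2% DMSO final) were pre-incubated with 6 nM KAT-7 in 50 mM Tris pH 8.0 with 1 mM DTT, then given 1 μM peptide substrate and 2 μM acetyl-CoA for 120 min at 25 °C. IC50 values were derived.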

KAT-5, sequence (Q92993 other isoform, or with tags, fused parts or gaps): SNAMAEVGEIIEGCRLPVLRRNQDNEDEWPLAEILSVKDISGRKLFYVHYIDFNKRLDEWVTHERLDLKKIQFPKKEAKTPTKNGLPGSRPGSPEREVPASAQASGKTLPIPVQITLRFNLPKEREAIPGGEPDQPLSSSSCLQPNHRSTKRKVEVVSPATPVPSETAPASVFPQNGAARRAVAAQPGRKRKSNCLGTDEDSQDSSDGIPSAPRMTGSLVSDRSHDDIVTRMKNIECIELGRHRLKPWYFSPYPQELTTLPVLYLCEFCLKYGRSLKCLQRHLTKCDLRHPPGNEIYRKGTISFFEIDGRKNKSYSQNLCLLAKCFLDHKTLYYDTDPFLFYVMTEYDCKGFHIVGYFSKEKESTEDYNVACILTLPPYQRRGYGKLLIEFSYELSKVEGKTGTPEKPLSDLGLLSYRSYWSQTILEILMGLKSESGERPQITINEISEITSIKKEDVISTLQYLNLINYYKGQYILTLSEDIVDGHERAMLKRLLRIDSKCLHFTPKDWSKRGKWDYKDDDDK
KAT-7, sequence (O95251 other isoform, or with tags, fused parts or gaps): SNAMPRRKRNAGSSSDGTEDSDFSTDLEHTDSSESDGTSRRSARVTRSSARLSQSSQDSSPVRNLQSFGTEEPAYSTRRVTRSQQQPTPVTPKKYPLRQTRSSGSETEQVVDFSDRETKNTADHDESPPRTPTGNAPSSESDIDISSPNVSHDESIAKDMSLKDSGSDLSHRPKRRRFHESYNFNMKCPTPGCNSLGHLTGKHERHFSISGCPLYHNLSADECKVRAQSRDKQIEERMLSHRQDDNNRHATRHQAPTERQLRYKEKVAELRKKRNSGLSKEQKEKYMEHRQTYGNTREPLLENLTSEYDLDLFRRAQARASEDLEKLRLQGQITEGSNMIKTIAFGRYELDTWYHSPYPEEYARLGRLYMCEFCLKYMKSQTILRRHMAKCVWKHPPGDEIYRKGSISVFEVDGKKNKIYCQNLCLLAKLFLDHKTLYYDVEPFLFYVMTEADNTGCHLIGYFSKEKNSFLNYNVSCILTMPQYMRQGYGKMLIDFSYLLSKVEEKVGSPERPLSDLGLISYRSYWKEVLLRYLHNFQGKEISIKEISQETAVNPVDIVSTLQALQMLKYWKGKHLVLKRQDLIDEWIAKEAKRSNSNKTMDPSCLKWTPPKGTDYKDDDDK
KAT-6A, sequence (Q92794 other isoform, or with tags, fused parts or gaps): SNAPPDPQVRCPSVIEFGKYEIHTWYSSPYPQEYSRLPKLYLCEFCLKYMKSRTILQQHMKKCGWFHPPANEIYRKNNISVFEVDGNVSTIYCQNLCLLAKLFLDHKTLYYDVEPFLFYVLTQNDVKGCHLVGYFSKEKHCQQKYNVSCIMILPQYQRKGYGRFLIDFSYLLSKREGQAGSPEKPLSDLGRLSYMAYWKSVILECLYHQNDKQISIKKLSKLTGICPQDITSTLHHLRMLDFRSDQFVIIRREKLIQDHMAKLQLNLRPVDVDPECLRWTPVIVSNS

COCc1cc(Cl)c(F)c(C(=O)NNS(=O)(=O)c2cccc(O)c2)c1 [Compound A-30]
IC50 [1]: > 10 µM
IC50 [2]: ≤ 10 µM
IC50 [3]: ≤ 1 µM
inhibition of acetylation of H3K23 [4]: inhibition of acetylation of H3 K23
IC50 [5]: ≤ 10 µM
IC50 [6]: ≤ 10 µM
IC50 [7]: ≤ 10 µM
IC50 [8]: > 10 µM
IC50 [9]: ≤ 10 µM
IC50 [10]: ≤ 10 µM
IC50 [11]: > 10 µM
IC50 [12]: > 10 µM
IC50 [13]: ≤ 10 µM
IC50 [14]: ≤ 10 µM
